Source: ChEMBL document CHEMBL1201862, “PubChem BioAssay data set” (2004)
The source made the active and inactive calls.

Assays:
[1] = target: Peroxisome proliferator-activated receptor gamma/Nuclear receptor coactivator 3 (Homo sapiens, UniProt P37231); type: functional;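 note: agonist potency for raising coactivator recruitment to the receptor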
[2] = target: Peroxisome proliferator-activated receptor gamma/Nuclear receptor coactivator 1 (Homo sapiens, UniProt P37231); type: functional;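 note: agonist potency as compounds enhance coactivator SRC-1 recruitment to PPARgamma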
Sequence of Peroxisome proliferator-activated receptor gamma/Nuclear receptor coactivator 1 (P37231 whole entry): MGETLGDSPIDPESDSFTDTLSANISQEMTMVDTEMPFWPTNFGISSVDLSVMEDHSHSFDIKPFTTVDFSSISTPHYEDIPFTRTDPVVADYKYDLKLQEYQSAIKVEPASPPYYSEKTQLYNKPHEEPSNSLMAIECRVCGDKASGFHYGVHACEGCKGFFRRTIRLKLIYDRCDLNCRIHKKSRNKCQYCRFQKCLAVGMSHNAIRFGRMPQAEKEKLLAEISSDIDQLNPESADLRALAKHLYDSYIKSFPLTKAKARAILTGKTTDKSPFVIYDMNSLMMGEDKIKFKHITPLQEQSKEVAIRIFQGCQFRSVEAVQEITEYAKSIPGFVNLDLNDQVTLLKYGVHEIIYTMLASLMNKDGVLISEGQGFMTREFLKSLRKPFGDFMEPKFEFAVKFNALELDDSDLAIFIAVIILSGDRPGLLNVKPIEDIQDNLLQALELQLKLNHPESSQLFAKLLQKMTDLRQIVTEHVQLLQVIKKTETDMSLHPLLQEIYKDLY
Sequence of Peroxisome proliferator-activated receptor gamma/Nuclear receptor coactivator 1 (Q15788 whole entry, further chain): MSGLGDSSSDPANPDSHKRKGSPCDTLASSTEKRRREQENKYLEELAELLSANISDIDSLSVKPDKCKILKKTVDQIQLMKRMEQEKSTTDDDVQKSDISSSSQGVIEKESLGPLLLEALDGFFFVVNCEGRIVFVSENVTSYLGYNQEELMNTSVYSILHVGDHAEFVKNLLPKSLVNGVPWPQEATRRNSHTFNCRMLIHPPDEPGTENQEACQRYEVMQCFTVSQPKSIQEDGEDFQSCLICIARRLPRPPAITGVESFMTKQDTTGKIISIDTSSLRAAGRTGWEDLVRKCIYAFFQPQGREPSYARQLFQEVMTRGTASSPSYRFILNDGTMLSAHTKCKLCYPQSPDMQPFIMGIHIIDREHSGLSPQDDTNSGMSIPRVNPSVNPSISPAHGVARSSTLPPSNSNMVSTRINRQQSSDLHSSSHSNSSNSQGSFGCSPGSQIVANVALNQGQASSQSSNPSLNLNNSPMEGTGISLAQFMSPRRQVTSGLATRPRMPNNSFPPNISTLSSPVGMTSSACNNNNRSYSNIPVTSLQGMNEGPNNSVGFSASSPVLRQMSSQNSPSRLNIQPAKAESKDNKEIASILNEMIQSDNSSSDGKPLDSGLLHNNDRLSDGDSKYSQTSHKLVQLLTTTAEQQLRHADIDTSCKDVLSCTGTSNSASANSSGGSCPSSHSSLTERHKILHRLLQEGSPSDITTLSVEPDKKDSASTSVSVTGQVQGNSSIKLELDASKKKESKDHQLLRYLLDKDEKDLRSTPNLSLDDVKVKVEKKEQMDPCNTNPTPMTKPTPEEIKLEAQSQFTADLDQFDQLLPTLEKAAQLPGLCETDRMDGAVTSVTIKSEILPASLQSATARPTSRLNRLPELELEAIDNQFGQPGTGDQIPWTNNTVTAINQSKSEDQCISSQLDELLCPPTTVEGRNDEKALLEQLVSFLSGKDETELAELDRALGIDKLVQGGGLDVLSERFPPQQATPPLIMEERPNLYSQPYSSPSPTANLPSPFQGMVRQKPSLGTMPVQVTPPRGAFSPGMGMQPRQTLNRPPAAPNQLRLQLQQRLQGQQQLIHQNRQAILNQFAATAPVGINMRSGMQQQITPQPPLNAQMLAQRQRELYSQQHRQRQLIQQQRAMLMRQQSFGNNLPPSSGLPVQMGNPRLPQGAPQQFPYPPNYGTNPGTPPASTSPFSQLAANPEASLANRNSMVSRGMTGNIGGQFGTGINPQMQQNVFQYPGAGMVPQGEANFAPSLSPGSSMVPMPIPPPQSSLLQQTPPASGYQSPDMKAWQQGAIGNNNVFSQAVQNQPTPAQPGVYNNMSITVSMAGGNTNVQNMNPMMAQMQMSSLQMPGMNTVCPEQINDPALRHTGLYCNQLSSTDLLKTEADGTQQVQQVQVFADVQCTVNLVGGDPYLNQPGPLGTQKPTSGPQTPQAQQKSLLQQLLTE

[3] = target: Peroxisome proliferator-activated receptor gamma/Nuclear receptor coactivator 2 (Homo sapiens, UniProt P37231); type: functional;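 note: agonist potency for raising coactivator recruitment to the receptor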
Cytochrome P450 2C9 = Cytochrome P450 2C9 (Homo sapiens, UniProt P11712)
Sequence of Cytochrome P450 2C9 (P11712 whole entry): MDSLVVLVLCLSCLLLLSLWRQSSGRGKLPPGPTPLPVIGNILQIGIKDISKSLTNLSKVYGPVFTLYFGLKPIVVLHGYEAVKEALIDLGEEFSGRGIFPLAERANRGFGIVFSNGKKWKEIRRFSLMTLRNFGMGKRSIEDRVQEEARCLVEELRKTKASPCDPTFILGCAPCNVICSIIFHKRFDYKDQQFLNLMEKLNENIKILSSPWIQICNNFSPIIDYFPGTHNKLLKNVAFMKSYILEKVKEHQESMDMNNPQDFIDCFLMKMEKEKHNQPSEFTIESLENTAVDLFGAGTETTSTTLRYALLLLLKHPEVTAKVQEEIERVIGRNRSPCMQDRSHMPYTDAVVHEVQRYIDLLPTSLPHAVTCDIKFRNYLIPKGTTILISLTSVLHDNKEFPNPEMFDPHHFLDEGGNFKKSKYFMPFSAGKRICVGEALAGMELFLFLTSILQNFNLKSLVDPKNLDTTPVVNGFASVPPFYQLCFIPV

[4] = target: Eukaryotic translation initiation factor 4E (Mus musculus, UniProt P63073); test: blockers of eIF4G binding by eIF4E – biochemical, TR-FRET, dose response (AID 855); type: functional;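 note: potency for disrupting eIF4E binding to eIF4GI seen as loss of FRET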
Sequence of Eukaryotic translation initiation factor 4E (P63073 whole entry): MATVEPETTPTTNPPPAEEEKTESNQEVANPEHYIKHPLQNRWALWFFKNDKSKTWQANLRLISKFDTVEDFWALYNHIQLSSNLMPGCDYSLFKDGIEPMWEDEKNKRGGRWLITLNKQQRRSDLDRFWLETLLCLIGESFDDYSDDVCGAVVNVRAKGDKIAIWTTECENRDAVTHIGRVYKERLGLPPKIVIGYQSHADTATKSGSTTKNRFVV

Cytochrome P450 2C19 = Cytochrome P450 2C19 (Homo sapiens, UniProt P33261); test: Cytochrome panel assay with activity outcomes. Panel member name: p450-cyp2c19 Compounds with AC50 equal or less than 10 uM are considered active; type: functional; conditions: read-out: AC50
Sequence of Cytochrome P450 2C19 (P33261 whole entry): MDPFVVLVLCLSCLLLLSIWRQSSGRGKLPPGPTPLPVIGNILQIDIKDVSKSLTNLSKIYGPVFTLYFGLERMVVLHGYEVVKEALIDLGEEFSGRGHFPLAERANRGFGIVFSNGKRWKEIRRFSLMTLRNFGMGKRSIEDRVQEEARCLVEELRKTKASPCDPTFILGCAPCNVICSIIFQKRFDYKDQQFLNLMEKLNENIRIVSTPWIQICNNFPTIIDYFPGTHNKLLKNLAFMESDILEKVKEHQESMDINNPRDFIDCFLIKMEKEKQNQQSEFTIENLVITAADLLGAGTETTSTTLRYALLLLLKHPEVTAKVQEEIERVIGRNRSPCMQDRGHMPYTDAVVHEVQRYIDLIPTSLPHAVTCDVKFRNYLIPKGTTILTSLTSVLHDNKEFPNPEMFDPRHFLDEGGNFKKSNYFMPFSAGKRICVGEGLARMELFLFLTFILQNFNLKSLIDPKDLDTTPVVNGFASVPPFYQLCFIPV

Caspase-6 = target: T1, Caspase-6 (Homo sapiens, UniProt P55212); test: inhibition of CASP6 peptide cleavage – biochemical, VEID-R110 fluorescence, cherry-pick, dose response (AID 720632)
T1 sequence (P55212 whole entry): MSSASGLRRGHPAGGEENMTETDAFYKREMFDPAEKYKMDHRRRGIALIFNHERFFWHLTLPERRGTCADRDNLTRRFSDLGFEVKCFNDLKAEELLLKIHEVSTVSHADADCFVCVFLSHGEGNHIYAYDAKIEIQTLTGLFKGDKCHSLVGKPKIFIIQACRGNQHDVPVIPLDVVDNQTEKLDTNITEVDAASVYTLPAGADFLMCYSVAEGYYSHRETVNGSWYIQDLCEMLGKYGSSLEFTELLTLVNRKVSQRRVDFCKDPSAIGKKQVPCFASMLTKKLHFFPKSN

[5] = target: T2, Mannose-6-phosphate isomerase (Homo sapiens, UniProt P34949); test: MPI inhibition at elevated mannose 6-phosphate – biochemical, fluorescence intensity, high mannose 6-phosphate, primary screen (AID 1220)
T2 sequence (P34949 whole entry): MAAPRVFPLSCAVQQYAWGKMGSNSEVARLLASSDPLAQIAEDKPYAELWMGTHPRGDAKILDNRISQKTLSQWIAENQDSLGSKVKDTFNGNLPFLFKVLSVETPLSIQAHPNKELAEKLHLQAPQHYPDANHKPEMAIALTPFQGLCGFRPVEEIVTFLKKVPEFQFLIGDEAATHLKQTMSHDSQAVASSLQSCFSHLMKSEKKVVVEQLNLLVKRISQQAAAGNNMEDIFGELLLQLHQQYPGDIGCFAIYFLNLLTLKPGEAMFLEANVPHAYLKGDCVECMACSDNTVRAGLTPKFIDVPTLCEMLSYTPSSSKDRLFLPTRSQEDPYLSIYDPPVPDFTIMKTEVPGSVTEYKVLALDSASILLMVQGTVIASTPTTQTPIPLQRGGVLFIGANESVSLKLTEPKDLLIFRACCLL

BJ [6] = test: BJ-TERT fibroblast viability loss – cell-based, RAS-independent, luminescence, dose response (AID 1933); type: functional; conditions: Homo sapiens
[7] = DRD fibroblast viability loss – cell-based, non-viral oncogenic, luminescence, dose response (AID 1934); type: functional; conditions: Homo sapiens
BJ [8] = test: BJ-TERT-LT-ST fibroblast viability loss – cell-based, RAS-independent, luminescence, dose response (AID 1935); type: functional; conditions: Homo sapiens;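 note: BJ fibroblasts immortalized with TERT plus LT and ST oncogenes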
BJ [9] = test: cells; type: functional, cell-based; conditions: Homo sapiens
[10] = Luminescence Cell-Based Dose Confirmation HTS to Identify Inhibitors of Platelet Dense Granule Release. [Related pubchem assays: 1663 (Primary HTS), 1678 (Summary of Project)]; type: functional
[11] = target: Luciferin 4-monooxygenase (Photinus pyralis, UniProt P08659); test: inhibition of purified Photinus pyralis luciferase – biochemical, luminescence, dose response (AID 1891)
[12] = alpha-synuclein stem-loop luciferase translation blockers – H4 neuroglioma cells, luminescence, confirmation (AID 1988); type: functional, cell-based
[13] = HEK-293T viability loss after treatment – luminescence, T-cell screen hits, cytotoxicity control for TCR NF-kB inhibitor project, dose response (AID 489026); type: functional, cell-based;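 note: cells exposed to compound about 14 hours before the viability readout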
[14] = Luminescence Cell-Based Dose Response HTS to Identify Inhibitors of 5'UTR Stem-Loop Driven Prion Protein mRNA Translation in H4 Neuroglioblastoma Cells. [Related pubchem assays: 1827 (Project Summary), 1813 (Primary HTS)]; type: functional
[15] = luciferase reporter signal suppression in cells – H4 neuroglioma cells, luminescence, dose response (AID 1990); type: functional, cell-based
[16] = HEK-293T cell viability reduction – luminescence, B-cell screen hits, cytotoxicity control for BCR NF-kB inhibitor project, dose response (AID 489021); type: functional, cell-based;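 note: HEK-293T cells carrying an NF-kB luciferase reporter; cells exposed to compound for about 14 hours before viability readout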
[17] = reduced cellular PGC1a acetyl-lysine signal – cell-based, cherry-picked samples, dose response (AID 720514); type: functional;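 note: potency may reflect raised or lowered acetylation signal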

Sequence of Peroxisome proliferator-activated receptor gamma/Nuclear receptor coactivator 3 (P37231 whole entry): as the sequence (P37231 whole entry) above
Sequence of Peroxisome proliferator-activated receptor gamma/Nuclear receptor coactivator 3 (Q9Y6Q9 whole entry, further chain): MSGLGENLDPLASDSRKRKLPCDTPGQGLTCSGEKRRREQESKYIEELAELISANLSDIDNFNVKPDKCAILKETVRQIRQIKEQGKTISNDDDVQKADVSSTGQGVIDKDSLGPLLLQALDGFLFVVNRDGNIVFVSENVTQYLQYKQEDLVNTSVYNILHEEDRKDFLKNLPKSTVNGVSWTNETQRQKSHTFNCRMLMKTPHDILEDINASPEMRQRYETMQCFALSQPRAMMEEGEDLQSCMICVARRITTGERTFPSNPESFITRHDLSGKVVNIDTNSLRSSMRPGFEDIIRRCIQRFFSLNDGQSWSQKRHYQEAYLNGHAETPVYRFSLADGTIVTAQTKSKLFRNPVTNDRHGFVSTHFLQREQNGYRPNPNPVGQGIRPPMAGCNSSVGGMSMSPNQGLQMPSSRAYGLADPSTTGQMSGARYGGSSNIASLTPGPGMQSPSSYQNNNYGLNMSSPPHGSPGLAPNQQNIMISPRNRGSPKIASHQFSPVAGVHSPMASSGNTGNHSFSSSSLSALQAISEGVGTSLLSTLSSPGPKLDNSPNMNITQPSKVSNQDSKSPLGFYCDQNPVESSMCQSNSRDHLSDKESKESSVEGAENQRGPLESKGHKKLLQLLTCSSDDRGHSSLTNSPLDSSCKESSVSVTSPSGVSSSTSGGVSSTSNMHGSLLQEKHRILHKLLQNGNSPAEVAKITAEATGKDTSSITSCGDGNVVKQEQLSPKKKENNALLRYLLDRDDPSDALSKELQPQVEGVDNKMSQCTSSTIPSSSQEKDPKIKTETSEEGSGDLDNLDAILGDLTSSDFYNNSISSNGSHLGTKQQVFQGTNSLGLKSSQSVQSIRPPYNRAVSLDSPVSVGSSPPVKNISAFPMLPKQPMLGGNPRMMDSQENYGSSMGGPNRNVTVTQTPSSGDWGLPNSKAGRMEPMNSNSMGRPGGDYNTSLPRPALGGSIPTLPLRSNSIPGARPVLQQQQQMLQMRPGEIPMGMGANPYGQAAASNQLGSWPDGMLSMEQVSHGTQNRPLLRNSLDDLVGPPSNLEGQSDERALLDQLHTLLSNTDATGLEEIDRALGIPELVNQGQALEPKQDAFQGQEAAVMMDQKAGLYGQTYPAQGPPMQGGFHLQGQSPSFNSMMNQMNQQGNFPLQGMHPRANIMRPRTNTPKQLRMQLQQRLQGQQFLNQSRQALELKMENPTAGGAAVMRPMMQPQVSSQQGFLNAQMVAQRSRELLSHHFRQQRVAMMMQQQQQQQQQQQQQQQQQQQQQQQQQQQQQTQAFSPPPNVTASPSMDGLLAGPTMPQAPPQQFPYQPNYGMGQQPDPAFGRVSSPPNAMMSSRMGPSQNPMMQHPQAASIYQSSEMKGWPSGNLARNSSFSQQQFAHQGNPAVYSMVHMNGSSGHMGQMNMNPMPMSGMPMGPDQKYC

Q: For `Clc1cccc2sc(N3CCN(c4ccccc4)CC3)nc12`, which EC50 [1] is on record?
A: > 79.4 µM (not active)

Q: And the EC50 [2]?
A: > 79.4 µM (not active)

Q: What about the EC50 [3] of the same molecule?
A: > 79.4 µM (not active)

Q: For `CC(C)CC(=O)N1CCC(N2CCN(c3ccccc3)CC2)CC1`, which AC50 (Cytochrome P450 2C9) is on record?
A: 14.1 µM (inconclusive)

Q: What about the IC50 [4] of the same molecule?
A: > 64 µM (inactive)

Q: And the AC50 (Cytochrome P450 2C19)?
A: 15.8 µM (inconclusive)

Q: What does the source list for `Cc1ccc2cc(N)ccc2n1`?
A: AC50 (Caspase-6): 14.2 µM (active); IC50 [5]: > 50 µM (not active)

Q: With `O=C(c1cccc([N+](=O)[O-])c1)c1ccccn1` as the molecule, how does the EC50 (BJ [6]) read?
A: > 150 µM (not active)

Q: And the EC50 [7]?
A: > 150 µM (not active)

Q: What about the EC50 (BJ [8]) of the same molecule?
A: > 150 µM (not active)

Q: What about the EC50 (BJ [9]) of the same molecule?
A: > 150 µM (not active)

Q: What does the source list for `O=C(Cc1sc(-c2ccccc2Cl)nc1-c1ccccc1)Nc1ccccc1`?
A: EC50 [1]: 11.3 µM (not active); EC50 [2]: 10 µM (not active); EC50 [3]: 6.82 µM (active)

Q: For `CC1(C)Cc2c(sc3nc(NCCN4CCOCC4)n4ncnc4c23)CO1`, which EC50 [10] is on record?
A: 10.8 µM (active)

Q: What about the IC50 [4] of the same molecule?
A: > 64 µM (inactive)

Q: And the EC50 [11]?
A: > 112 µM (not active)

Q: For `CN(C)/C=C1\Oc2ccc3ccccc3c2C1=O`, which IC50 [5] is on record?
A: > 50 µM (not active)

Q: With `CN(CC(=O)Nc1ccc(N2CCOCC2)cc1)Cc1c(O)ccc2ccccc12` as the molecule, how does the IC50 [5] read?
A: > 50 µM (not active)

Q: Which EC50 (BJ [6]) does the source give for `COc1ccc(-n2nnnc2-c2cccc(OC)c2)cc1` here?
A: 8.48 µM (active)

Q: What about the EC50 [12] of the same molecule?
A: 0.824 µM (inconclusive)

Q: What about the EC50 [7] of the same molecule?
A: 2.04 µM (active)

Q: What about the IC50 [13] of the same molecule?
A: > 80 µM (inactive)

Q: What about the EC50 [14] of the same molecule?
A: 11.6 µM (active)

Q: What about the EC50 [15] of the same molecule?
A: 4.68 µM (inconclusive)

Q: What about the EC50 (BJ [8]) of the same molecule?
A: 2.71 µM (active)

Q: And the EC50 (BJ [9])?
A: 109 µM (active)

Q: Which IC50 [16] does the source give for `Cc1cc(OCC(=O)NC2CC2)c2c(C)c(C)c(=O)oc2c1` here?
A: > 80 µM (inactive)

Q: For `Cc1ccc(/C=C2\SC(=S)N(CCC(=O)NNC(=O)c3ccncc3)C2=O)cc1`, which IC50 [16] is on record?
A: > 80 µM (inactive)

Q: With `Cc1cc(OCC(=O)Nc2ccc(CCO)cc2)c2c(C)c(C)c(=O)oc2c1` as the molecule, how does the IC50 [16] read?
A: > 80 µM (inactive)

Q: For `C[C@H](CO)N1C[C@H](C)[C@H](CN(C)Cc2ccccc2)Oc2cc(Br)ccc2S1(=O)=O`, which AC50 [17] is on record?
A: 25.8 µM (active)

Q: Which AC50 [17] does the source give for `Fc1cccc(-c2ccc([C@@H]3[C@@H]4CN(Cc5nccs5)C[C@H]3N4)cc2)c1` here?
A: 17.6 µM (active)

Q: For `O=C(C[C@H]1CC[C@@H](NC(=O)c2ccccc2)[C@H](CO)O1)Nc1ccc(-c2ccccc2)cc1`, which AC50 [17] is on record?
A: 4.76 µM (active)

Q: For `COc1ccc(OC)c2c1s/c(=N\C(=O)C(C)(C)C)n2C`, which EC50 [1] is on record?
A: > 79.4 µM (not active)

Q: What about the EC50 [2] of the same molecule?
A: > 79.4 µM (not active)

Q: And the EC50 [3]?
A: > 79.4 µM (not active)

Q: Which IC50 [16] does the source give for `CCOc1cc(/C=N\Nc2nc(Nc3ccccc3)nc(N3CCOCC3)n2)ccc1OC(=O)c1ccco1` here?
A: > 80 µM (inactive)
